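Five compound concentrations were applied to cells in 96-well plates for 48 hours; endpoints were derived by simple linear interpolation of the resulting dose-response curve. GI50: concentration for 50% inhibition of growth.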 The source made the active and inactive calls. No stated cut-off is given here; in the data, active = GI50 up to about 1.1 µM and inactive = higher.
Columns and labels:
Assay in all cases: inhibition of tumour cell growth, NCI panel, 48 h
SK-MEL-2 = tested on: SK-MEL-2
786-0 = tested on: 786-0
NCI-H226 = tested on: NCI-H226
A498 = tested on: A498
Malme-3M = tested on: Malme-3M
MCF7 = tested on: MCF7
Hs-578T = tested on: Hs-578T
HT-29 = tested on: HT-29
CCRF-CEM = tested on: CCRF-CEM
T47D = tested on: T47D
SNB-19 = tested on: SNB-19
EKVX = tested on: EKVX
OVCAR-4 = tested on: OVCAR-4
SF-539 = tested on: SF-539
SK-MEL-5 = tested on: SK-MEL-5
UACC-62 = tested on: UACC-62
LOX IMVI = tested on: LOX IMVI
ACHN = tested on: ACHN
MDA-MB-231 = tested on: MDA-MB-231
SK-OV-3 = tested on: SK-OV-3
COLO 205 = tested on: COLO 205
HOP-62 = tested on: HOP-62
SK-MEL-28 = tested on: SK-MEL-28
SN12C = tested on: SN12C
SF-295 = tested on: SF-295
NCI-H23 = tested on: NCI-H23
NCI-H460 = tested on: NCI-H460
HOP-92 = tested on: HOP-92
MOLT-4 = tested on: MOLT-4
UACC-257 = tested on: UACC-257
DU-145 = tested on: DU-145
CAKI-1 = tested on: CAKI-1
MDA-MB-435 = tested on: MDA-MB-435
RXF 393 = tested on: RXF 393
A549 = tested on: A549
SF-268 = tested on: SF-268
U-251 = tested on: U-251
BT-549 = tested on: BT-549
RPMI-8226 = tested on: RPMI-8226
HCT-116 = tested on: HCT-116
HL-60 = tested on: HL-60
M14 = tested on: M14
NCI/ADR-RES = tested on: NCI/ADR-RES
SR = tested on: SR
MDA-N = tested on: MDA-N
IGROV-1 = tested on: IGROV-1
SW-620 = tested on: SW-620
PC-3 = tested on: PC-3
K562 = tested on: K562
HCC 2998 = tested on: HCC 2998
NCI-H522 = tested on: NCI-H522
SNB-75 = tested on: SNB-75
OVCAR-8 = tested on: OVCAR-8
TK-10 = tested on: TK-10
HCT-15 = tested on: HCT-15
KM12 = tested on: KM12
OVCAR-5 = tested on: OVCAR-5
UO-31 = tested on: UO-31
OVCAR-3 = tested on: OVCAR-3

CC[C@]1(O)CC(OC2CC(N(C)C)C(O)C(C)O2)c2c(cc3c(c2O)C(=O)c2c(O)cccc2C3=O)[C@@H]1C(=O)OC (some centres undefined)
GI50 (SK-MEL-2): 381 nM (active)
GI50 (786-0): 205 nM (active)
GI50 (NCI-H226): 243 nM (active)
GI50 (A498): 232 nM (active)
GI50 (Malme-3M): 245 nM (active)
GI50 (MCF7): 292 nM (active)
GI50 (Hs-578T): 745 nM (active)
GI50 (HT-29): 107 nM (active)
GI50 (CCRF-CEM): 117 nM (active)
GI50 (T47D): 649 nM (active)
GI50 (SNB-19): 328 nM (active)
GI50 (EKVX): 493 nM (active)
GI50 (OVCAR-4): 114 nM (active)
GI50 (SF-539): 590 nM (active)
GI50 (SK-MEL-5): 192 nM (active)
GI50 (UACC-62): 196 nM (active)
GI50 (LOX IMVI): 85.9 nM (active)
GI50 (ACHN): 53.7 nM (active)
GI50 (MDA-MB-231): 351 nM (active)
GI50 (SK-OV-3): 333 nM (active)
GI50 (COLO 205): 88.1 nM (active)
GI50 (HOP-62): 146 nM (active)
GI50 (SK-MEL-28): 664 nM (active)
GI50 (SN12C): 178 nM (active)
GI50 (SF-295): 195 nM (active)
GI50 (NCI-H23): 272 nM (active)
GI50 (NCI-H460): 45 nM (active)
GI50 (HOP-92): 220 nM (active)
GI50 (MOLT-4): 40.5 nM (active)
GI50 (UACC-257): 347 nM (active)
GI50 (DU-145): 675 nM (active)
GI50 (CAKI-1): 46.6 nM (active)
GI50 (MDA-MB-435): 291 nM (active)
GI50 (RXF 393): 269 nM (active)
GI50 (A549): 136 nM (active)
GI50 (SF-268): 120 nM (active)
GI50 (U-251): 151 nM (active)
GI50 (BT-549): 1160 nM (inactive)
GI50 (RPMI-8226): 125 nM (active)
GI50 (HCT-116): 45.5 nM (active)
GI50 (HL-60): 249 nM (active)
GI50 (M14): 468 nM (active)
GI50 (NCI/ADR-RES): 269 nM (active)
GI50 (SR): 53.8 nM (active)
GI50 (MDA-N): 384 nM (active)
GI50 (IGROV-1): 119 nM (active)
GI50 (SW-620): 39.2 nM (active)
GI50 (PC-3): 214 nM (active)
GI50 (K562): 73.3 nM (active)
GI50 (HCC 2998): 210 nM (active)
GI50 (NCI-H522): 108 nM (active)
GI50 (SNB-75): 201 nM (active)
GI50 (OVCAR-8): 74.3 nM (active)
GI50 (TK-10): 472 nM (active)
GI50 (HCT-15): 244 nM
GI50 (KM12): 225 nM (active)
GI50 (OVCAR-5): 718 nM (active)
GI50 (UO-31): 173 nM (active)
GI50 (OVCAR-3): 493 nM (active)
